# US11026916B2, “Treatment for non-alcoholic fatty liver diseases” (DSM IP ASSETS B.V., priority 2014, dated 2021)
# How the values were obtained:
# Format in all cases: cell-based, human
# [1] = system: TNF-alpha; assay: TNF-alpha secretion by LPS-stimulated leukocytes (mononuclear cells), multiplex cytokine kit; settings: for % reduction of TNF-alpha: pre-incubating cells prior to the stimulation with LPS, concentration not stated in the sentence (Table 1a)
# Protocol: (§1) Leukocytes are obtained from healthy donors. Mononuclear cells (MNC) are purified by Ficoll-Isopaque gradient centrifugation. Cells (at 3-8×10^6 cells/mL) are cultured in phenol-red free RPMI 1640, supplemented with 0.25% FBS, 0.1 mM NEAA, 50 U/mL penicillin, 50 μg/mL streptomycin and 5×10^-5 M 2-mercaptoethanol. Cells are stimulated with LPS (100 ng/mL) and IFN-γ (20 U/mL) for 2-24 h. Multiparametric kits for determination of cytokines and chemokines are purchased from BIO-RAD Laboratories (Hercules, Calif.) and used in the LiquiChip Workstation IS 200 (Qiagen, Hilden, Germany). The data are evaluated with the LiquiChip Analyser software (Qiagen).
# (§2) The algorithm developed by Chou and Tatalay is used to calculate synergistic effects (Chou, T-C. Et Tatalay, P. A simple Biol. Chem. 252, 6438-6442, 1977; Chou, T-C. Et Tatalay, P. Analysis of combined drug effects—A new look at a very old problem. Trends in Biological Sciences. November 1983, p 450-454, 1983). Interactions are quantified by the Combination Index (CI). Briefly, the % of inhibition of the concentration of each single substance alone or the mixture of both are determined. The affected fraction (fa) (values between 0 and 1) and unaffected fraction (fu) (1−fa), respectively, is calculated. For median-effect plots, log (fa/fu) is plotted against log (D), where D represents the concentration of each single compound alone or the mixture of both. Using CalcuSyn software (Biosoft, Ferguson, Mo.), which is based upon the method by Chou Et Tatalay, a CI is computed for every fraction affected: a CI<1 reflects synergistic inhibition of the respective inflammatory parameter; if CI=1 the substances have additive interactions; when CI>1 the interaction of substances reflects antagonism. It has also been observed that substances can have synergistic or antagonistic interactions at given concentrations or ratios, respectively (see e.g. Pappa et al. Quantitative combination effects between sulforaphane and 3,3′-[…] diindolylmethane on proliferation of human colon cancer cells in vitro. Carcinogenesis 28, 1471-77, 2007).
# (§3) Cells are stimulated with LPS, an pathogen-derived component that induces inflammatory response, which is reflected in the expression of inflammatory genes and the secretion of cytokines, interleukins and chemokines (Table 1). LPS induces a massive increase of the secretion of inflammatory mediators such as TNF-alpha. Concomitantly, inflammatory mediators are secreted. These parameters are modulated by pre-incubating cells with α-tocopherol or ω-3 PUFA prior to the stimulation with LPS. For instance, the pro-inflammatory cytokine […] is reduced by 29% and 64%, respectively (Table 1a). […] Thus, the substances reduces the extent of the inflammatory stress in cells that respond to inflammatory stimuli.
# [2] = system: CCL4/MIP-1beta; assay: CCL4/MIP-1beta secretion by LPS-stimulated leukocytes (mononuclear cells), multiplex cytokine kit; settings: for CCL4/MIP-1 b reduction (in words): pre-incubating cells prior to the stimulation with LPS
# Protocol: as §1, §2, §3
# [3] = system: IL-1beta; assay: IL-1beta secretion by LPS-stimulated leukocytes (mononuclear cells), multiplex cytokine kit; settings: for IL-1beta reduction (in words): pre-incubating cells prior to the stimulation with LPS
# Protocol: as §1, with “(Qiagen). […]” for “(Qiagen).”
# as §3
Compound,% reduction of TNF-alpha [1] [%],% inhibition (vs LPS) of TNF-alpha ([1]; single substance 10 μM + LPS) [%],TNF-alpha pg/mL ± SD ([1]; single substance 10 μM + LPS) [pg/mL],% inhibition (vs LPS) of TNF-alpha ([1]; single substance 50 μM + LPS) [%],TNF-alpha pg/mL ± SD ([1]; single substance 50 μM + LPS) [pg/mL],CCL4/MIP-1 b reduction (in words) [2],% inhibition (vs LPS) of CCL4 ([2]; single substance 10 μM + LPS) [%],CCL4 pg/mL ± SD ([2]; single substance 10 μM + LPS) [pg/mL],% inhibition (vs LPS) of CCL4 ([2]; single substance 50 μM + LPS) [%],CCL4 pg/mL ± SD ([2]; single substance 50 μM + LPS) [pg/mL],IL-1beta reduction (in words) [3],% inhibition (vs LPS) of IL-1beta ([3]; single substance 10 μM + LPS) [%],IL-1beta pg/mL ± SD ([3]; single substance 10 μM + LPS) [pg/mL],% inhibition (vs LPS) of IL-1beta ([3]; single substance 50 μM + LPS) [%],IL-1beta pg/mL ± SD ([3]; single substance 50 μM + LPS) [pg/mL],also measured
"Cc1c(C)c2c(c(C)c1O)CC[C@@](C)(CCC[C@H](C)CCC[C@H](C)CCCC(C)C)O2 [AT, α-tocopherol]",29,−4,5505 ± 177,29,3755 ± 21,significantly reduced,7,91400 ± 5657,15,83900 ± 3111,significantly reduced,−7,6770 ± 438,9,5735 ± 134,% inhibition (vs LPS) of TNF-alpha ([1]; single substance 200 μM + LPS): 27%; TNF-alpha pg/mL ± SD ([1]; single substance 200 μM + LPS): 3870 ± 14 pg/mL; % inhibition (vs LPS) of CCL4 ([2]; single substance 200 μM + LPS): 11%; CCL4 pg/mL ± SD ([2]; single substance 200 μM + LPS): 87950 ± 3165 pg/mL; % inhibition (vs LPS) of IL-1beta ([3]; single substance 200 μM + LPS): 14%; IL-1beta pg/mL ± SD ([3]; single substance 200 μM + LPS): 5430 ± 113 pg/mL
"CC/C=C\C/C=C\C/C=C\C/C=C\C/C=C\C/C=C\CCC(=O)O [DHA, (all-Z)-4,7,10,13,16,19-docosahexaenoic acid]",64,60,3190 ± 14,59,3105 ± 163,significantly reduced,32,79995 ± 3465,62,37600 ± 778,significantly reduced,14,5405 ± 742,77,1440 ± 71,% inhibition (vs LPS) of TNF-alpha ([1]; single substance 20 μM + LPS): 64%; TNF-alpha pg/mL ± SD ([1]; single substance 20 μM + LPS): 3400 ± 523 pg/mL; % inhibition (vs LPS) of CCL4 ([2]; single substance 20 μM + LPS): 62%; CCL4 pg/mL ± SD ([2]; single substance 20 μM + LPS): 67000 ± 7523 pg/mL; % inhibition (vs LPS) of IL-1beta ([3]; single substance 20 μM + LPS): 23%; IL-1beta pg/mL ± SD ([3]; single substance 20 μM + LPS): 4865 ± 1633 pg/mL
